pEC50: −log10 of the molar value.
What was measured:
Experiment in all cases: RAR-P-GR holoreceptor transactivation assay (PGR assay)
Assay type in all cases: cell-based
RARγ = biological target: T1, RARγ (Homo sapiens, UniProt P13631, E108G/G109S/G112V); settings: for pEC50: CV-1 cells, luciferase reporter, 18 hours; for Emax: relative to all-trans-retinoic acid, read-out: % Efficiency RARγ
T1 construct: expressed in transfected cells; host or cells: CV-1
T1 sequence (P13631 1-454 E108G/G109S/G112V): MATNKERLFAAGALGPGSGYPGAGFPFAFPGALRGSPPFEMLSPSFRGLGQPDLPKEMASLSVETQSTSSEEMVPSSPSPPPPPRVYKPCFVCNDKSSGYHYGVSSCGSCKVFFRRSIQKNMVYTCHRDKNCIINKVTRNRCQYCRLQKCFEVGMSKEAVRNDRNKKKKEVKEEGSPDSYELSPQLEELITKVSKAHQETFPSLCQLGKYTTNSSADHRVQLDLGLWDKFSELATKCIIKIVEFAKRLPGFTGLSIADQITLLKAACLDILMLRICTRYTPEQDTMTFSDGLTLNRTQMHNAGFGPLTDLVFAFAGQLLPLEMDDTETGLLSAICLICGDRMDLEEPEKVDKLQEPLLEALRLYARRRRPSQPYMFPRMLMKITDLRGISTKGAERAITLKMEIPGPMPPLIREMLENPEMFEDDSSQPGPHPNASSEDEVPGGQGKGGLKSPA
T1 sequence (P19793 1-462 partner): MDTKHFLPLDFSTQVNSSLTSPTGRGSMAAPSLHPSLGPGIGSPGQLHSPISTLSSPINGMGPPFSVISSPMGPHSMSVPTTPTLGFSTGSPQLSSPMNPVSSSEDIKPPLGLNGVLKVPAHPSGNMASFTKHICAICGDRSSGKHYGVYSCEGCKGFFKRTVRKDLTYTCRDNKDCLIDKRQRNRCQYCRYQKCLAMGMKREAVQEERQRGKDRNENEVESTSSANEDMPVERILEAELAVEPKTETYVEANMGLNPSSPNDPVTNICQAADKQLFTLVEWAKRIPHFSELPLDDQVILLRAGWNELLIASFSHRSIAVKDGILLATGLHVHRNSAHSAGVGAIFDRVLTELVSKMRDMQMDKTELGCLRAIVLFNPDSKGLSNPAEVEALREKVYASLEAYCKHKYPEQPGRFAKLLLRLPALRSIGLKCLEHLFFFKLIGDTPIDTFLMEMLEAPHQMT
Procedure: (§1) Still another transactivation assay, the "PGR assay" is described in the publication KIein et al. J. Biol. Chem. 271, 22692-22696 (1996) which is expressly incorporated herein by reference, and a detailed description is also provided below. The results of the PGR assay are also expressed in EC50 numbers (nanomolar concentration).
(§2) RAR-P-GR Holoreceptor Transactivation Assay
(§3) CV-1 cells (4×10^5 cells/well) were transiently transfected with the luciferase reporter plasmid MTV-4(R5G)-Luc (0.7 μg/well) containing four copies of the R5G retinoid DNA response element along with the RXRα expression plasmid pRS-hRXRα (0.1 μg/well) and one of the RAR-P-GR expression plasmids (0.05 μg/well) in 12 well plates via calcium phosphate precipitation Chen et al. (1987) Mol. Cell. Biol. 7, 2745-2752, as described by Vein et al. in J. Biol. Chem. 271, 22692, referenced above. The three different RAR-P-GR expression plasmids, pRS-RARα-P-GR, pcDNA3-RARβ-P-GR and pcDNA3-RARγ-P-GR, express RARα, RARβ and RARγ receptors, respectively, which contain modified DNA binding domains such that their "P-boxes" have been altered to that of the glucocorticoid receptor. These RAR-P-GR receptors bind to DNA as heterodimeric complexes with RXR. Specifically, the RAR-P-GR receptors bind retinoic acid response elements designated R5G, comprised of two RAR half sites (nucleotide sequence 5'-GGTTCA-3') separated by 5 base pairs in which the 3'-half site has been modified to that of a glucocorticoid receptor half site, 5'-AGAACA-3'. To allow for various in transfection efficiency a β-galactosidase expression plasmid (0.01 ug/well) was used as an internal control. Alternatively, the assay was performed in a 96-well microtiter plate format (5000 cells/well) in a manner which was identical to that described above except 1/5 of the amount of the DNA-calcium phosphate precipitant (20 μl instead of 100 μl) was applied to each well. Eighteen hours after introduction of the DNA precipitants, cells were rinsed with phosphate buffered saline (PBS) and fed with D-MEM (Gibco-BRL) containing 10% activated charcoal extracted fetal bovine serum (Gemini Bio-Products). After rinsing with PBS, cells were lysed and luciferase activity was measured as previously described in de Wet et al. (1987) Mol. Cell. Biol. 7, 725-737. Luciferase values represent the mean±SEM of triplicate determinations normalized to β-galactosidase activity.

RARβ = biological target: T2, RARβ (Homo sapiens, UniProt P10826, E106G/G107S/G110V); settings: for pEC50: CV-1 cells, luciferase reporter, 18 hours; for Emax: relative to all-trans-retinoic acid, read-out: % Efficiency RARβ
T2 construct: expressed in transfected cells; host or cells: CV-1
T2 sequence (P10826 1-448 isoform P10826-2 E99G/G100S/G103V): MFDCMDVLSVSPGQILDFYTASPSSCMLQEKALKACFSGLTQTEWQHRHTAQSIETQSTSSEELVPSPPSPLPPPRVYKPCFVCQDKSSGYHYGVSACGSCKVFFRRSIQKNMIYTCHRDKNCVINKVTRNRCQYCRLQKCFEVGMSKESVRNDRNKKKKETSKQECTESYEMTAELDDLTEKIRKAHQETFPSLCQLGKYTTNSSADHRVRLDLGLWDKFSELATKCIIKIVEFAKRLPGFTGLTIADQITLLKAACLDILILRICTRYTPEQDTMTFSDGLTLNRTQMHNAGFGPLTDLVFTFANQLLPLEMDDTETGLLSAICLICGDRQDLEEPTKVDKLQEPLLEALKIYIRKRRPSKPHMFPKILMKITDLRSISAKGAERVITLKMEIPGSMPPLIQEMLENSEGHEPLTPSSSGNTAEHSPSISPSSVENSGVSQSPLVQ
T2 sequence (P19793 1-462 partner): T1 sequence (P19793 1-462 partner)
Procedure: as §1, §2, §3

RARα = biological target: T3, RARα (Homo sapiens, UniProt P10276, E106G/G107S/G110V); settings: for pEC50: CV-1 cells, luciferase reporter, 18 hours; for Emax: relative to all-trans-retinoic acid, read-out: % Efficiency RARα
T3 construct: expressed in transfected cells; host or cells: CV-1
T3 sequence (P10276 1-462 E106G/G107S/G110V): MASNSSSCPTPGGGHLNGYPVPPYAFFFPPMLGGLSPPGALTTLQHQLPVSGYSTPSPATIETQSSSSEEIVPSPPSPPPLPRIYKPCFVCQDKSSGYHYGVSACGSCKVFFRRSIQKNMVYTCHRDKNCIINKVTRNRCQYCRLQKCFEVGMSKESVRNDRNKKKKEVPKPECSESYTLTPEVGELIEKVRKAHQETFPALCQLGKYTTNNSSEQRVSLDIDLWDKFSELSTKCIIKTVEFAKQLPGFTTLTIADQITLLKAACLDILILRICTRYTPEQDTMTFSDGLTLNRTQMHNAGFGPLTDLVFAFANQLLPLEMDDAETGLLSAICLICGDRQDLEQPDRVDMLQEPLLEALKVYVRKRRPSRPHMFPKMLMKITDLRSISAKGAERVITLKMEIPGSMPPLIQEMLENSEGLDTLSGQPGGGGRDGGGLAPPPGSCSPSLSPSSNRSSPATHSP
T3 sequence (P19793 1-462 partner): T1 sequence (P19793 1-462 partner)
Procedure: as §1, §2, §3

pEC50 (RARγ) | Emax (RARγ) [%] | pEC50 (RARβ) | Emax (RARβ) [%] | pEC50 (RARα) | Emax (RARα) [%] | Compound
< 5.00 | 1 | < 5.00 | 3 | < 5.00 | 1 | Cc1ccc(C(=O)c2cc(C#Cc3ccc(C(=O)O)cc3)ccc2O)cc1 [Compound 5, 4-[[4'-hydroxy-3'-(4"-methyl)benzoyl]phenylethynyl]benzoic acid]
< 5.00 | 3 | < 5.00 | 3 | < 5.00 | 1 | C=C(c1ccc(C)cc1)c1cc(C#Cc2ccc(C(=O)O)cc2)ccc1O [Compound 8, 4-[[4'-Hydroxy-3'-(1-p-tolyl)vinyl]phenylethynyl]benzoic acid]
< 5.00 | 5 | < 5.00 | 3 | < 5.00 | 1 | C=C(c1ccc(C)cc1)c1cc(C#Cc2ccc(C(=O)O)cc2)ccc1OCOC [Compound 9, 4-[[4'-methoxymethoxy-3'-(1-p-tolyl)vinyl]phenylethynyl]benzoic acid]
< 5.00 | 5 | < 5.00 | 1 | < 5.00 | 0 | C=C(c1ccc(C)cc1)c1cc(C#Cc2ccc(C(=O)O)cc2)ccc1OC [Compound 12, 4-[[4'-Methoxy-3'-(1-p-tolyl)vinyl]phenylethynyl]benzoic acid]
< 5.00 | 0 | < 5.00 | 0 | < 5.00 | 0 | COCOc1ccc(C#Cc2ccc(C(=O)O)cc2)cc1C(=O)c1ccc(C)cc1 [Compound 13]
< 5.00 | 1 | < 5.00 | 5 | < 5.00 | 9 | C=C(c1ccc(C)cc1)c1cccc(C#Cc2ccc(C(=O)O)cc2)c1 [Compound 20, 4-[[3'-(1-p-Tolyl)vinyl]phenylethynyl]benzoic acid]
< 5.00 | 0 | < 5.00 | 0 | < 5.00 | 0 | COc1ccc(C#Cc2ccc(C(=O)O)cc2)cc1C(=O)c1ccc(C)cc1 [Compound 22, 4-[[4'-methoxy-3'-(4"-methyl)benzoyl]phenylethynyl]benzoic acid]
< 5.00 | 0 | < 5.00 | 2 | < 5.00 | 0 | Cc1ccc(C(=O)c2cc(C#Cc3ccc(C(=O)O)c(F)c3)c(C)cc2O)cc1 [Compound 25, 4-[[4'-Hydroxy-2'-methyl-5'-(4"-methyl)benzoyl]phenylethynyl]-2-fluoro-benzoic acid]
< 5.00 | 1 | < 5.00 | 0 | < 5.00 | 0 | C=C(c1ccc(C)cc1)c1cc(C#Cc2ccc(C(=O)O)cc2)ccc1OC(C)C [Compound 28, 4-[[4'-Isopropoxy-3'-(1-p-tolyl)vinyl]phenylethynyl]benzoic acid]
< 5.00 | 1 | < 5.00 | 0 | < 5.00 | 0 | C=C(c1ccc(C)cc1)c1cc(C#Cc2ccc(C(=O)O)c(F)c2)ccc1OC(C)C [Compound 29, 4-[[4'-Isopropoxy-3'-(1-p-tolyl)vinyl]phenylethynyl]-2-fluoro-benzoic acid]
< 5.00 | 2 | < 5.00 | 4 | < 5.00 | 0 | C=C(c1cccc(C)c1)c1cc(C#Cc2ccc(C(=O)O)cc2)ccc1OC(C)C [Compound 31, 4-[[4'-Isopropoxy-3'-(1-m-tolyl)vinyl]phenylethynyl]benzoic acid]
